According to PubChem BioAssay AID1259407 (Chemical Carcinogenesis Research Information System (CCRIS), 2018):
Calls of active or inactive are those of the source. The rule behind the calls is not given here.

Tested on: CCRIS mutagenicity, Ames/micronucleus/aberration tests
Experiment: CCRIS mutagenicity studies
[1] = Test System: AMES SALMONELLA TYPHIMURIUM, Strain/Indicator: TA98, Metabolic Activation: NONE, Method: STANDARD PLATE
[2] = Test System: AMES SALMONELLA TYPHIMURIUM, Strain/Indicator: TA100, Metabolic Activation: NONE, Method: STANDARD PLATE
[3] = Test System: AMES SALMONELLA TYPHIMURIUM, Strain/Indicator: TA1535, Metabolic Activation: NONE, Method: STANDARD PLATE
[4] = Test System: AMES SALMONELLA TYPHIMURIUM, Strain/Indicator: TA1537, Metabolic Activation: NONE, Method: STANDARD PLATE
[5] = Test System: AMES SALMONELLA TYPHIMURIUM, Strain/Indicator: TA98, Metabolic Activation: RAT, LIVER, S-9, AROCLOR 1254, Method: STANDARD PLATE
[6] = Test System: AMES SALMONELLA TYPHIMURIUM, Strain/Indicator: TA100, Metabolic Activation: RAT, LIVER, S-9, AROCLOR 1254, Method: STANDARD PLATE

Q: With `CN(N=O)C(=O)c1c(N(C)C(=O)OC(C)(C)C)ncn1C` as the molecule, how does the mutagenic call [1] read?
A: Its mutagenic call is “inactive; negative”.

Q: And the mutagenic call (Test System: AMES SALMONELLA TYPHIMURIUM, Strain/Indicator: TA98, Metabolic Activation: S-9, Method: STANDARD PLATE)?
A: Its mutagenic call is “inactive; negative”.

Q: And the mutagenic call [2]?
A: Its mutagenic call is “active; positive”.

Q: And the mutagenic call (Test System: AMES SALMONELLA TYPHIMURIUM, Strain/Indicator: TA100, Metabolic Activation: S-9, Method: STANDARD PLATE)?
A: Its mutagenic call is “active; positive”.

Q: What about the mutagenic call (Test System: AMES SALMONELLA TYPHIMURIUM, Strain/Indicator: TA102, Metabolic Activation: NONE, Method: STANDARD PLATE) of the same molecule?
A: Its mutagenic call is “inactive; negative”.

Q: What about the mutagenic call (Test System: AMES SALMONELLA TYPHIMURIUM, Strain/Indicator: TA102, Metabolic Activation: S-9, Method: STANDARD PLATE) of the same molecule?
A: The mutagenic call was “active; positive”.

Q: And the mutagenic call [3]?
A: Its mutagenic call is “active; positive”.

Q: What about the mutagenic call (Test System: AMES SALMONELLA TYPHIMURIUM, Strain/Indicator: TA1535, Metabolic Activation: S-9, Method: STANDARD PLATE) of the same molecule?
A: Its mutagenic call is “active; positive”.

Q: And the mutagenic call [4]?
A: The mutagenic call was “inactive; negative”.

Q: What about the mutagenic call (Test System: AMES SALMONELLA TYPHIMURIUM, Strain/Indicator: TA1537, Metabolic Activation: S-9, Method: STANDARD PLATE) of the same molecule?
A: Its mutagenic call is “inactive; negative”.

Q: `O=C1CCCc2c1ccc1c([N+](=O)[O-])c3ccccc3cc21` was tested. Which mutagenic call (Test System: AMES SALMONELLA TYPHIMURIUM, Strain/Indicator: TA98, Metabolic Activation: NONE) did it give?
A: Its mutagenic call is “inactive; negative”.

Q: What about the mutagenic call (Test System: AMES SALMONELLA TYPHIMURIUM, Strain/Indicator: TA98, Metabolic Activation: S-9) of the same molecule?
A: Its mutagenic call is “inactive; negative”.

Q: And the mutagenic call (Test System: AMES SALMONELLA TYPHIMURIUM, Strain/Indicator: TA100, Metabolic Activation: NONE)?
A: The mutagenic call was “inactive; negative”.

Q: What about the mutagenic call (Test System: AMES SALMONELLA TYPHIMURIUM, Strain/Indicator: TA100, Metabolic Activation: S-9) of the same molecule?
A: The mutagenic call was “inactive; negative”.

Q: Which results are given for `Cc1cc(S(=O)(=O)O)c([N+](=O)[O-])cc1[N+](=O)[O-]`?
A: mutagenic call (End Point: In vitro chromosomal aberrations, Test System: V79 Chinese hamster fibroblasts, Metabolic Activation: None): inactive; negative; mutagenic call (Test System: Ames Salmonella typhimurium, Strain/Indicator: TA98, Metabolic Activation: None, Method: Standard plate): inactive; negative; mutagenic call (Test System: Ames Salmonella typhimurium, Strain/Indicator: TA98, Metabolic Activation: Rat, Liver, S-9, Method: Standard plate): inactive; negative; mutagenic call (Test System: Ames Salmonella typhimurium, Strain/Indicator: TA100, Metabolic Activation: None, Method: Standard plate): inactive; negative; mutagenic call (Test System: Ames Salmonella typhimurium, Strain/Indicator: TA100, Metabolic Activation: Rat, Liver, S-9, Method: Standard plate): inactive; negative

Q: `COc1ccc2c(OC)c3ccoc3nc2c1` was tested. Which mutagenic call (Test System: AMES SALMONELLA TYPHIMURIUM, Strain/Indicator: TA98, Metabolic Activation: RAT, LIVER, S-9, PHENOBARBITAL, Method: STANDARD PLATE) did it give?
A: Its mutagenic call is “active; positive”.

Q: And the mutagenic call (Test System: AMES SALMONELLA TYPHIMURIUM, Strain/Indicator: TA100, Metabolic Activation: RAT, LIVER, S-9, PHENOBARBITAL, Method: STANDARD PLATE)?
A: The mutagenic call was “active; positive”.

Q: For `O=C1c2ccc3ccccc3c2-c2c1ccc1ccccc21`, which mutagenic call [1] is on record?
A: The mutagenic call was “inactive; negative”.

Q: What about the mutagenic call [5] of the same molecule?
A: Its mutagenic call is “active; positive”.

Q: What about the mutagenic call [2] of the same molecule?
A: Its mutagenic call is “inactive; negative”.

Q: And the mutagenic call [6]?
A: Its mutagenic call is “active; positive”.

Q: For `CC(C)=CCC/C(C)=C/C=C/C(C)=C/C=C/C(C)=C/C=C/C=C(C)/C=C/C=C(C)/C=C/C=C(\C)CCC=C(C)C`, which mutagenic call (Test System: AMES SALMONELLA TYPHIMURIUM, Strain/Indicator: TA98, Metabolic Activation: NONE, Method: PREINCUBATION) is on record?
A: The mutagenic call was “inactive; negative”.

Q: And the mutagenic call (Test System: AMES SALMONELLA TYPHIMURIUM, Strain/Indicator: TA98, Metabolic Activation: RAT LIVER S-9, Method: PREINCUBATION)?
A: Its mutagenic call is “inactive; negative”.

Q: And the mutagenic call (Test System: AMES SALMONELLA TYPHIMURIUM, Strain/Indicator: TA100, Metabolic Activation: NONE, Method: PREINCUBATION)?
A: The mutagenic call was “inactive; negative”.

Q: And the mutagenic call (Test System: AMES SALMONELLA TYPHIMURIUM, Strain/Indicator: TA100, Metabolic Activation: RAT LIVER S-9, Method: PREINCUBATION)?
A: The mutagenic call was “inactive; negative”.

Q: And the mutagenic call (Test System: AMES SALMONELLA TYPHIMURIUM, Strain/Indicator: TA1535, Metabolic Activation: NONE, Method: PREINCUBATION)?
A: Its mutagenic call is “inactive; negative”.

Q: And the mutagenic call (Test System: AMES SALMONELLA TYPHIMURIUM, Strain/Indicator: TA1535, Metabolic Activation: RAT LIVER S-9, Method: PREINCUBATION)?
A: The mutagenic call was “inactive; negative”.

Q: What about the mutagenic call (Test System: AMES SALMONELLA TYPHIMURIUM, Strain/Indicator: TA1537, Metabolic Activation: NONE, Method: PREINCUBATION) of the same molecule?
A: Its mutagenic call is “inactive; negative”.

Q: What about the mutagenic call (Test System: AMES SALMONELLA TYPHIMURIUM, Strain/Indicator: TA1537, Metabolic Activation: RAT LIVER S-9, Method: PREINCUBATION) of the same molecule?
A: Its mutagenic call is “inactive; negative”.

Q: What about the mutagenic call (Test System: ESCHERICHIA COLI, Strain/Indicator: WP2 UVR A, Metabolic Activation: NONE, Method: PREINCUBATION) of the same molecule?
A: The mutagenic call was “inactive; negative”.

Q: And the mutagenic call (Test System: ESCHERICHIA COLI, Strain/Indicator: WP2 UVR A, Metabolic Activation: RAT LIVER S-9, Method: PREINCUBATION)?
A: Its mutagenic call is “inactive; negative”.

Q: How did the mutagenic call [1] turn out when `Cc1ccc(S(=O)(=O)NC(=O)Nc2ncc([N+](=O)[O-])s2)cc1` was run?
A: The mutagenic call was “inactive; negative”.

Q: And the mutagenic call [2]?
A: Its mutagenic call is “inactive; negative”.

Q: Which mutagenic call [1] does the source give for `Nc1ccc(N)c2c1C(=O)c1cccc([N+](=O)[O-])c1C2=O` here?
A: Its mutagenic call is “active; positive”.

Q: What about the mutagenic call [5] of the same molecule?
A: Its mutagenic call is “active; positive”.

Q: And the mutagenic call [2]?
A: The mutagenic call was “inactive; negative”.

Q: And the mutagenic call [6]?
A: The mutagenic call was “inactive; negative”.

Q: And the mutagenic call [3]?
A: The mutagenic call was “inactive; negative”.

Q: What about the mutagenic call (Test System: AMES SALMONELLA TYPHIMURIUM, Strain/Indicator: TA1535, Metabolic Activation: RAT, LIVER, S-9, AROCLOR 1254, Method: STANDARD PLATE) of the same molecule?
A: Its mutagenic call is “inactive; negative”.

Q: And the mutagenic call [4]?
A: The mutagenic call was “active; positive”.

Q: And the mutagenic call (Test System: AMES SALMONELLA TYPHIMURIUM, Strain/Indicator: TA1537, Metabolic Activation: RAT, LIVER, S-9, AROCLOR 1254, Method: STANDARD PLATE)?
A: Its mutagenic call is “inactive; negative”.

Q: And the mutagenic call (Test System: AMES SALMONELLA TYPHIMURIUM, Strain/Indicator: TA1538, Metabolic Activation: NONE, Method: STANDARD PLATE)?
A: Its mutagenic call is “active; positive”.

Q: And the mutagenic call (Test System: AMES SALMONELLA TYPHIMURIUM, Strain/Indicator: TA1538, Metabolic Activation: RAT, LIVER, S-9, AROCLOR 1254, Method: STANDARD PLATE)?
A: Its mutagenic call is “active; positive”.

Q: And the mutagenic call (Test System: AMES SALMONELLA TYPHIMURIUM, Strain/Indicator: TA1978, Metabolic Activation: NONE, Method: STANDARD PLATE)?
A: Its mutagenic call is “inactive; negative”.

Q: `Cl/C=C(\Cl)c1c(Cl)c(Cl)c(Cl)c(Cl)c1Cl` was tested. Which mutagenic call [1] did it give?
A: The mutagenic call was “inactive; negative”.

Q: What about the mutagenic call [5] of the same molecule?
A: Its mutagenic call is “inactive; negative”.

Q: And the mutagenic call [2]?
A: The mutagenic call was “inactive; negative”.

Q: What about the mutagenic call [6] of the same molecule?
A: Its mutagenic call is “inactive; negative”.
